This passage reports mutagenic call results from PubChem BioAssay AID1259407 (Chemical Carcinogenesis Research Information System (CCRIS), 2018).

Entries after “also recorded” stand apart in the source; their conditions may differ. Calls of active or inactive are those of the source. How the calls were made is not given here.

The data set relates to CCRIS mutagenicity, Ames/micronucleus/aberration tests. Put plainly: CCRIS mutagenicity studies.
Setting [1] is: Test System: AMES SALMONELLA TYPHIMURIUM, Strain/Indicator: TA98, Metabolic Activation: NONE, Method: PREINCUBATION
The mark [2] stands for this setting: Test System: AMES SALMONELLA TYPHIMURIUM, Strain/Indicator: TA100, Metabolic Activation: NONE, Method: PREINCUBATION
Setting [3] is: Test System: AMES SALMONELLA TYPHIMURIUM, Strain/Indicator: TA1535, Metabolic Activation: NONE, Method: PREINCUBATION
Where [4] appears, read: Test System: AMES SALMONELLA TYPHIMURIUM, Strain/Indicator: TA1537, Metabolic Activation: NONE, Method: PREINCUBATION

As to `CN(C)[C@@H]1C(=O)C(C(N)=O)=C(O)[C@@]2(O)C(=O)C3=C(O)c4c(O)cccc4[C@@](C)(O)[C@H]3[C@H](O)[C@@H]12`, the mutagenic call was “inactive; negative” (End Point: AMES SALMONELLA TYPHIMURIUM, Test System: TA98, Metabolic Activation: NONE, Method: STANDARD PLATE); “inactive; negative” (End Point: AMES SALMONELLA TYPHIMURIUM, Test System: TA100, Metabolic Activation: NONE, Method: STANDARD PLATE); “inactive; negative” (End Point: IN VITRO CHROMOSOMAL ABERRATIONS, Test System: CHO CELLS, Metabolic Activation: NONE); “inactive; negative” (End Point: IN VITRO CHROMOSOMAL ABERRATIONS, Test System: CHO CELLS, Metabolic Activation: RAT, LIVER, S-9, AROCLOR 1254); “inactive; negative” (Test System: AMES SALMONELLA TYPHIMURIUM, Strain/Indicator: TA98, Metabolic Activation: HAMSTER, LIVER, S-9, AROCLOR 1254, Method: PREINCUBATION); “inactive; negative” under setting [1]. Moreover, the mutagenic call by setting is: (Test System: AMES SALMONELLA TYPHIMURIUM, Strain/Indicator: TA98, Metabolic Activation: RAT, LIVER, S-9, AROCLOR 1254, Method: PREINCUBATION) “inactive; negative”; (Test System: AMES SALMONELLA TYPHIMURIUM, Strain/Indicator: TA100, Metabolic Activation: HAMSTER, LIVER, S-9, AROCLOR 1254, Method: PREINCUBATION) “inactive; negative”; under setting [2], “inactive; negative”; (Test System: AMES SALMONELLA TYPHIMURIUM, Strain/Indicator: TA100, Metabolic Activation: RAT, LIVER, S-9, AROCLOR 1254, Method: PREINCUBATION) “inactive; negative”; (Test System: AMES SALMONELLA TYPHIMURIUM, Strain/Indicator: TA1535, Metabolic Activation: HAMSTER, LIVER, S-9, AROCLOR 1254, Method: PREINCUBATION) “inactive; negative”; under setting [3], “inactive; negative”. For the same compound, the mutagenic call is “inactive; negative” (Test System: AMES SALMONELLA TYPHIMURIUM, Strain/Indicator: TA1535, Metabolic Activation: RAT, LIVER, S-9, AROCLOR 1254, Method: PREINCUBATION); “inactive; negative” (Test System: AMES SALMONELLA TYPHIMURIUM, Strain/Indicator: TA1537, Metabolic Activation: HAMSTER, LIVER, S-9, AROCLOR 1254, Method: PREINCUBATION); “inactive; negative” under setting [4]; “inactive; negative” (Test System: AMES SALMONELLA TYPHIMURIUM, Strain/Indicator: TA1537, Metabolic Activation: RAT, LIVER, S-9, AROCLOR 1254, Method: PREINCUBATION); “active; positive” (Test System: MOUSE LYMPHOMA, Strain/Indicator: L5178Y (TK+/TK-), Metabolic Activation: RAT, LIVER, S-9, AROCLOR 1254, Method: SUSPENSION/PLATE).
With `O=C(/C=C/c1ccccc1)c1ccc([N+](=O)[O-])cc1`, the mutagenic call was “inactive; negative” (Test System: AMES SALMONELLA TYPHIMURIUM, Strain/Indicator: TA100, Metabolic Activation: NONE, Method: STANDARD PLATE) and “inactive; negative” (Test System: AMES SALMONELLA TYPHIMURIUM, Strain/Indicator: TA100, Metabolic Activation: RAT, LIVER, S-9, AROCLOR 1254, Method: STANDARD PLATE).
In the case of `CCCCCCCCCCOC[N+](C)(C)CCCCCCCC`, the mutagenic call is “inactive; negative” (Test System: BACILLUS SUBTILIS, Strain/Indicator: H17/REC, Metabolic Activation: NONE, Method: STANDARD PLATE) and “inactive; negative” (Test System: BACILLUS SUBTILIS, Strain/Indicator: M45, Metabolic Activation: NONE, Method: STANDARD PLATE).
In the case of `Cc1c(O)cc2c(c1O)C(=O)c1cccc(O)c1C2=O`, the mutagenic call by setting is: under setting [1], “inactive; negative”; (Test System: AMES SALMONELLA TYPHIMURIUM, Strain/Indicator: TA98, Metabolic Activation: RAT, LIVER, S-9, PCB, Method: PREINCUBATION) “active; positive”; under setting [2], “inactive; negative”; (Test System: AMES SALMONELLA TYPHIMURIUM, Strain/Indicator: TA100, Metabolic Activation: RAT, LIVER, S-9, PCB, Method: PREINCUBATION) “active; positive”.
For the compound `O=c1n(CC2CO2)c(=O)n(CC2CO2)c(=O)n1CC1CO1` (centres undefined), the mutagenic call (End Point: IN VITRO CHROMOSOMAL ABERRATIONS, Test System: CHINESE HAMSTER LUNG CELLS (CHL), Metabolic Activation: NONE) is “active; positive (structural changes)”; the mutagenic call (End Point: IN VITRO CHROMOSOMAL ABERRATIONS, Test System: CHINESE HAMSTER LUNG CELLS (CHL), Metabolic Activation: RAT, LIVER, S-9, KC-400) is “inactive; negative”; the mutagenic call (End Point: IN VITRO CHROMOSOMAL ABERRATIONS, Test System: CHINESE HAMSTER OVARY CELLS (CHO), Metabolic Activation: NONE) was “active; positive (structural changes)”; the mutagenic call (End Point: IN VITRO CHROMOSOMAL ABERRATIONS, Test System: CHINESE HAMSTER OVARY CELLS (CHO), Metabolic Activation: RAT, LIVER, S-9, AROCLOR 1254) was “active; positive (structural changes)”; the mutagenic call (End Point: IN VITRO CHROMOSOMAL ABERRATIONS, Test System: CHL CELLS, Metabolic Activation: RAT, LIVER, S-9, SODIUM PHENOBARBITAL AND 5,6-BENZOFLAVONE) is “active; positive (structural changes)”; the mutagenic call (End Point: IN VITRO CHROMOSOMAL ABERRATIONS, Test System: CHL CELLS, Metabolic Activation: S-9) is “active; positive; interlaboratory comparison between 2 labs; all reported positive resul; also recorded: active; positive (structural changes); interlaboratory comparison between 2 labs; both r”. Further, the mutagenic call is “active; positive (structural changes); interlaboratory comparison between 2 labs; both r; also recorded: active; positive; interlaboratory comparison among 3 labs; all reported positive results” (End Point: IN VITRO CHROMOSOMAL ABERRATIONS, Test System: CHO CELLS, Metabolic Activation: S-9); “active; positive” (End Point: IN VITRO CHROMOSOMAL ABERRATIONS, Test System: CHO-LB CELLS, Metabolic Activation: NONE); “active; positive” (End Point: IN VITRO CHROMOSOMAL ABERRATIONS, Test System: CHO-LB CELLS, Metabolic Activation: RAT, LIVER, S-9, AROCLOR 1254); “active; positive” (Test System: AMES SALMONELLA TYPHIMURIUM, Strain/Indicator: TA98, Metabolic Activation: HAMSTER, LIVER, S-9, AROCLOR 1254 (30%), Method: PREINCUBATION); “active; positive” under setting [1]; “active; positive” (Test System: AMES SALMONELLA TYPHIMURIUM, Strain/Indicator: TA98, Metabolic Activation: RAT LIVER S-9, PHENOBARBITAL AND BETA-NAPHTHOFLAVONE, Method: PREINCUBATION). Besides, the mutagenic call (Test System: AMES SALMONELLA TYPHIMURIUM, Strain/Indicator: TA98, Metabolic Activation: RAT, LIVER, S-9, AROCLOR 1254 (30%), Method: PREINCUBATION) was “active; positive”; the mutagenic call (Test System: AMES SALMONELLA TYPHIMURIUM, Strain/Indicator: TA100, Metabolic Activation: HAMSTER, LIVER, S-9, AROCLOR 1254 (30%), Method: PREINCUBATION) is “active; positive”; the mutagenic call under setting [2] was “active; positive”; the mutagenic call (Test System: AMES SALMONELLA TYPHIMURIUM, Strain/Indicator: TA100, Metabolic Activation: RAT LIVER S-9, PHENOBARBITAL AND BETA-NAPHTHOFLAVONE, Method: PREINCUBATION) is “active; positive”; the mutagenic call (Test System: AMES SALMONELLA TYPHIMURIUM, Strain/Indicator: TA100, Metabolic Activation: RAT, LIVER, S-9, AROCLOR 1254 (30%), Method: PREINCUBATION) is “active; positive”; the mutagenic call under setting [3] was “active; positive”. The mutagenic call is “active; positive” (Test System: AMES SALMONELLA TYPHIMURIUM, Strain/Indicator: TA1535, Metabolic Activation: RAT LIVER S-9, PHENOBARBITAL AND BETA-NAPHTHOFLAVONE, Method: PREINCUBATION); “inactive; negative” under setting [4]; “inactive; negative” (Test System: AMES SALMONELLA TYPHIMURIUM, Strain/Indicator: TA1537, Metabolic Activation: RAT LIVER S-9, PHENOBARBITAL AND BETA-NAPHTHOFLAVONE, Method: PREINCUBATION); “inactive; negative” (Test System: E.COLI, Strain/Indicator: WP2UVRA, Metabolic Activation: NONE, Method: PREINCUBATION); “inactive; negative” (Test System: E.COLI, Strain/Indicator: WP2UVRA, Metabolic Activation: RAT LIVER S-9, PHENOBARBITAL AND BETA-NAPHTHOFLAVONE, Method: PREINCUBATION).
Regarding `Cc1cnc2c(cc(C)c3c2nc(N)n3C)n1`, the mutagenic call (Test System: AMES SALMONELLA TYPHIMURIUM, Strain/Indicator: TA98, Metabolic Activation: RAT, LIVER, S-9, AROCLOR 1254, Method: STANDARD PLATE) was “active; positive”.
